The source of these data is ChEMBL document CHEMBL1134185, “Synthesis and anticonvulsant activity of novel and potent 1-aryl-7,8-methylenedioxy-1,2,3,5-tetrahydro-4H-2,3-benzodiazepin-4-ones” (2001).

Each structure is given as a SMILES string. A value given as a limit tells only on which side of the number the result lay.

A short description of experiment [1]: Anticonvulsant activity against audiogenic tonic seizures in DBA/2 mice, administered ip 30 minutes before auditory stimulation. It is filed as functional. The settings on record: Mus musculus.
Experiment [2] deals with Mus musculus. The experiment in a line: Effective dose required for anticonvulsant activity by ip administration against clonic phase of audiogenic seizures in DBA/2 mice after pretreatment with aniracetam+ 2,3-benzodiazepine (p<0.01). It is filed as functional.
Experiment [3] concerns Mus musculus. Description: Effective dose required for anticonvulsant activity by ip administration against tonic phase of audiogenic seizures in DBA/2 mice after pretreatment with aniracetam+ 2,3-benzodiazepine (p<0.01). It is filed as functional.
The species named for experiment [4] is Mus musculus. Description: Ratio of TD50 to ED50, expressed as protective index. Format: functional.
In experiment [5] the test system is Mus musculus. The experiment in a line: Effective dose required for anticonvulsant activity against AMPA-induced clonic seizure in Swiss mice 45 minutes after ip administration of the compound. The settings on record: 0.75 h. It is filed as functional.
For experiment [6], the system named is Mus musculus. The experiment in a line: Effective dose required for anticonvulsant activity against Clonic phase of seizure in DBA/2 mice 120 minutes after ip administration of the compound. Format: functional. The settings on record: 2 h.
Experiment [7] concerns Mus musculus. The experiment in a line: Effective dose required for anticonvulsant activity against Clonic phase of seizure in DBA/2 mice 15 minutes after ip administration of the compound. Format: functional. The settings on record: 0.25 h.
Experiment [8] has as its system Mus musculus. Description: Effective dose required for anticonvulsant activity against Clonic phase of seizure in DBA/2 mice 30 minutes after ip administration of the compound. The settings on record: 0.5 h. It is filed as functional.
Experiment [9] deals with Mus musculus. Description: Effective dose required for anticonvulsant activity against Clonic phase of seizure in DBA/2 mice 45 minutes after ip administration of the compound. Format: functional. The settings on record: 0.75 h.
In experiment [10] the test system is Mus musculus. Description: Effective dose required for anticonvulsant activity against Clonic phase of seizure in DBA/2 mice 60 minutes after ip administration of the compound. Format: functional. The settings on record: 1 h.
Experiment [11] relates to Mus musculus. Description: Effective dose required for anticonvulsant activity against Clonic phase of seizure in DBA/2 mice 90 minutes after ip administration of the compound. Format: functional. The settings on record: 1.5 h.
The test system of experiment [12] is Mus musculus. The experiment in a line: Effective dose required for anticonvulsant activity against KA-induced seizure was evaluated in Swiss mice on sc administration at CD97 (32 mg/kg) 15 minutes after ip injection of compound. Format: functional. The settings on record: 0.25 h.
Experiment [13] deals with Mus musculus. Description: Effective dose required for anticonvulsant activity against MES-induced Tonic seizure in Swiss mice 45 minutes after ip administration of the compound. It is filed as functional. The settings on record: 0.75 h.
The nature of experiment [14]: Anticonvulsant activity against audiogenic Clonic seizures in DBA/2 mice, administered ip 30 minutes before auditory stimulation. It is filed as functional. The settings on record: Mus musculus.
For experiment [15], the species on record is Mus musculus. The experiment in a line: Percent reduction of KA-evoked current with the patch clamp technique in cerebellar granule neurons grown in primary culture at a dose level of 100 uM was evaluated. It is filed as functional. On the technique in general: The patch-clamp technique gives a direct electrical read-out from membranes.
Experiment [16] concerns Mus musculus. Description: Effective dose required for anticonvulsant activity against AMPA-induced Tonic seizure in DBA/2 mice 45 minutes after ip administration of the compound. The settings on record: 0.75 h.
The test system of experiment [17] is Mus musculus. Description: Effective dose required for anticonvulsant activity against PTZ-induced Clonic seizure in Swiss mice 45 minutes after ip administration of the compound. The settings on record: 0.75 h.
The species named for experiment [18] is Mus musculus. The experiment in a line: Dose required to produce locomotor deficit assessed by rotarod test in DBA/2 mice. Format: functional. On the technique in general: In the rotarod test animals must keep their balance on a rotating rod.
The subject of experiment [19] is Mus musculus. Description: Effective dose required for anticonvulsant activity against AMPA-induced tonic seizure in Swiss mice 45 minutes after ip administration of the compound. Format: functional. The settings on record: 0.75 h.

One may read the ED50 as the midpoint of the dose-response relation. As for `Nc1ccc(C2NNC(=O)Cc3cc4c(cc32)OCO4)cc1` (centres undefined), the ED50 in experiment [1] was 6.47 µmol/kg; in the experiment with Mus musculus [2], 52.3 µmol/kg; with Mus musculus [3], 33.1 µmol/kg; in the experiment on Mus musculus [5], 24.6 µmol/kg; with Mus musculus [6], 39.5 µmol/kg; in the experiment with Mus musculus [7], over 50 µmol/kg. The 50% effective dose (ED50) in the experiment with Mus musculus [8] amounted to 11.4 µmol/kg; in the experiment on Mus musculus [9], 18.7 µmol/kg; with Mus musculus [10] it was 23.4 µmol/kg; in the experiment on Mus musculus [11] it was 37.1 µmol/kg; with Mus musculus [12], 15.9 µmol/kg; in the experiment on Mus musculus [13], 35.7 µmol/kg. For the same compound, the ED50 in experiment [14] came out at 11.4 µmol/kg; in the experiment with Mus musculus [16] it was 17.5 µmol/kg; in the experiment with Mus musculus [17], 59.7 µmol/kg. Further, the Ratio in the experiment filed under Mus musculus [4] turned out to be 3.6. The compound also gave a Reduction in the experiment filed under Mus musculus [15] of 38%.
For the compound `CCC(=O)NN1N=C(c2ccc(N)cc2)c2cc3c(cc2CC1=O)OCO3`, the ED50 in experiment [1] was found to be 6.47 µmol/kg; in experiment [14] it was 11.4 µmol/kg. Further, the Ratio in the experiment filed under Mus musculus [4] worked out at 3.6. Moreover, the TD50 in the experiment listed under Mus musculus [18] is 41.2 µM/kg.
For `CCC(=O)NN1NC(c2ccc(N)cc2)c2cc3c(cc2CC1=O)OCO3` (centres undefined), the results for the ED50 in experiment [1] and in experiment [14] were 18.1 µmol/kg and 24.6 µmol/kg, respectively. The Ratio in the experiment listed under Mus musculus [4] stood at 3.5. Besides, in the experiment filed under Mus musculus [18], the TD50 was determined as 86.1 µM/kg.
On to `CCCC(=O)NN1N=C(c2ccc(N)cc2)c2cc3c(cc2CC1=O)OCO3`, for which the ED50 is 5.09 µmol/kg in experiment [1] and 69.4 µmol/kg in experiment [14]. Also, the Ratio in the experiment listed under Mus musculus [4] was determined as 3.4. This compound returned a TD50 in the experiment filed under Mus musculus [18] of 398 µM/kg.
On to `CCCCC(=O)NN1N=C(c2ccc(N)cc2)c2cc3c(cc2CC1=O)OCO3`, for which the ED50 in experiment [1] worked out at 14.2 µmol/kg; in [14] it was 22.4 µmol/kg. Besides, in the experiment filed under Mus musculus [4], the Ratio came out at 4.7. The compound also gave a TD50 in the experiment filed under Mus musculus [18] of 673 µM/kg.
Take `Nc1ccc(C2=NNC(=O)Cc3cc4c(cc32)OCO4)cc1`: the results for the median effective dose (ED50) in the experiment with Mus musculus [5] and with Mus musculus [19] were 37.6 µmol/kg and 27 µmol/kg, respectively.
On to `CC(=O)NN1N=C(c2ccc(N)cc2)c2cc3c(cc2CC1=O)OCO3`, for which the ED50 in experiment [1] was found to be 10.9 µmol/kg; in experiment [14], 15.4 µmol/kg; in the experiment listed under Mus musculus [18] it was 99.1 µmol/kg. In addition, the Ratio in the experiment filed under Mus musculus [4] amounted to 4.5.
Turning to `CCCC(=O)NN1NC(c2ccc(N)cc2)c2cc3c(cc2CC1=O)OCO3` (centres undefined), the ED50 came out at 32.6 µmol/kg in experiment [1] and 38.7 µmol/kg in experiment [14]. In addition, in the experiment listed under Mus musculus [4], the Ratio turned out to be 2.8. In the experiment filed under Mus musculus [18], the TD50 came out at 108 µM/kg.
In the same order, the values of `CC(=O)NN1NC(c2ccc(N)cc2)c2cc3c(cc2CC1=O)OCO3` (centres undefined) are 49.2 µmol/kg, 69.4 µmol/kg, 2.6 and 182 µM/kg.
Turning to `O=C1Cc2cc3c(cc2C(c2ccccc2)=NN1)OCO3`, in the experiment filed under Mus musculus [4], the Ratio worked out at 3.7.
`CC1=NN=C(c2ccc(N)cc2)c2cc3c(cc2C1)OCO3` [GYKI-52466]: the Ratio in the experiment listed under Mus musculus [4] was determined as 2.1.
